Assay results taken from patent publication US20250280826A1, “PLANT GROWTH PROMOTER” (KAO CORPORATION, priority 2022, published 2025).

System: soybean
Assay: Example 5: soybean nodule activity after application of high concentration of ascorbic acid
Type: in vivo
Conditions: ascorbic acid dissolved in deionized water in comparison to tap water, regardless of amount of water
Excerpt: The items of the preparation of soil and sowing, the inoculation of Rhizobium, the cultivation conditions, the exudate collection method for measuring the amount of ureide nitrogen as an indicator of nodule activity, the experimental operation before quantification of exudate, the equipment and measurement method used for quantification of the amount of ureide nitrogen, and the standard products used and quantification were the same as those in Example 3, and the cultivation of soybean was carried out for 21 days.
Foliar spray treatment was carried out on day 14 after sowing. In addition to the reagents mentioned in Examples 2, 3, and 4, polyethylene glycol monolaurate and a glycerol fatty acid ester were used as nonionic surfactants. The reagents were dissolved in tap water or deionized water to prepare spraying solutions. Foliar spray was carried out only once. Assuming aerial spraying, 8 types of test plots containing a high concentration of ascorbic acid were examined (Table 6). In the test plots 2 and 3, 6.7 mL of each per plant was sprayed using a mister, and in the test plots 4 to 8, 0.125 mL of each per plant was sprayed.
The mean and the standard deviation were calculated from the data of four repeats, excluding the highest and the lowest values from the six repeats in each test plot.

O=C1O[C@H]([C@@H](O)CO)C(O)=C1O [ascorbic acid, (R)-3,4-dihydroxy-5-((S)-1,2-dihydroxyethyl)furan-2(5H)-one]
nodule activity (allantoic acid in exudate): increased
